Measurements from patent US6653135B1, “Dynamic protein signature assay” (University of Maryland, priority 2000, dated 2003).

Tests used:
[1] = system: Mytilus edulis; assay: Protein expression signature by 2D electrophoresis of whole body homogenate after 7 day exposure
Method: Protein expression signatures, including those proteins induced and those proteins suppressed by exposure, were isolated for each treatment group.
Eight blue mussels Mytilus edulis 2-3 cm in size were collected from a natural population 3M deep. Ambient salinity and temperature were a salinity of 6.3 ppt and a temperature of 7° C. The mussels were put in tanks for acclimation for 24 hours at the same temperature and salinity as collection. […] Water was changed every other day and continuously aerated. At the end of the 7 day exposure, mussels were removed from the shell and flash frozen in liquid nitrogen before being freeze dried for later analysis.
Freeze dried whole body tissue was mechanically homogenized in cold buffer containing phenyl-methylsulfonyl fluoride and dithiothreotol (PMSF and DTT, protease inhibitors) and tris buffer pH 5.5. After mechanical homogenization, samples were boiled to further break down cells, and cellular debris was removed by centrifugation (13000×g for 5 min). Total protein concentration was determined using methods based on the Bradford method (Biorad).
The supernatant containing the soluble protein fraction was separated using two dimensional electrophoresis (Biorad Miniprotean II™). […] Gels from each treatment were compared for changes in pattern and key components using Medical Electrophoresis Analysis Interactive Expert System (MELANIE II™) 2D analysis software (Biorad) and data compiled using a database developed by this laboratory. Composite gels were produced from each treatment set and compared to one another. Proteins uniquely present (induced (expressed)) or absent (suppressed) in each treatment were identified. Those present or absent in all the original component gels were included in the protein expression signature (PES) for each treatment.

[2] = system: Mytilus edulis gill tissue; assay: Protein expression changes in gill tissue by 2D electrophoresis after 24 h exposure
Method: Gill tissue previously flash frozen in liquid nitrogen was mechanically homogenized in cold buffer containing phenyl-methylsulfonyl fluoride and dithiothreotol (PMSF and DTT, protease inhibitors). Cellular debris was removed by centrifugation (13000×g for 5 min). Total protein concentration of the supernatant containing the soluble protein fraction was determined using the Bradford method.
Spots on each gel were detected and compared using Medical Electrophoresis Analysis Interactive Expert System (MELANIE II™) 2D analysis software (Biorad). […] Those spots detectable on the treatment composites only were considered present. Each spot of interest, present or absent, on the treatment composites was identified on all original gels from a treatment group before being considered part of the protein expression signature.

[3] = 7 days exposure, 70 ppb copper, 1 ppb Aroclor 1248, whole body
[4] = signature proteins also found with 70 ppb copper combined with lowered salinity (3 ppt), 7 days
[5] = 20, 40, 60, 80 ppb CuSO4, 24 hrs

SMILES	Proteins of the signature identified in organisms treated with copper and lowered salinity simultaneously ([1]; 70 ppb copper plus salinity 3 ppt, 7 days)	Protein expression signature (induced and suppressed), number of proteins ([1]; 7 days exposure, 70 ppb copper, 1 ppb Aroclor 1248) [proteins]	Unique Induction: number of proteins specifically induced (present) [1, 3] [proteins]	Unique Suppression: number of proteins specifically suppressed (absent) [1, 3] [proteins]	Copper/Salinity shared signal, induced proteins [1, 4] [proteins]	Copper/Salinity shared signal, suppressed proteins [1, 4] [proteins]	Protein spots absent at all treatment levels compared to controls [2, 5] [spots]	Protein spots present at all treatment levels compared to controls [2, 5] [protein spots]	Key Protein Changes (number of key proteins present and absent specifically) ([2]; 20 ppb CuSO4, 24 hrs, gill tissue)	Number of proteins specifically absent at a single dosage level ([2]; 20 ppb, 24 hrs) [protein spots]	Key Protein Changes (number of key proteins present and absent specifically) ([2]; 40 ppb CuSO4, 24 hrs, gill tissue)	Key Protein Changes (number of key proteins present and absent specifically) ([2]; 60 ppb CuSO4, 24 hrs, gill tissue)	Key Protein Changes (number of key proteins present and absent specifically) ([2]; 80 ppb CuSO4, 24 hrs, gill tissue)	Number of proteins specifically absent at a single dosage level ([2]; 80 ppb, 24 hrs) [protein spots]	Key Protein Changes (number of key proteins present and absent) ([2]; All Dosages (20, 40, 60, 80 ppb CuSO4), 24 hrs, gill tissue)
[Cu] [Copper, copper]	Five	23	13	10	3	2	–	–	–	–	–	–	–	–	–
O=S(=O)([O-])[O-].[Cu+2] [CuSO4, copper sulfate]	–	–	–	–	–	–	2	11	27	14	14	19	10	6	13
